According to the supplement of paper PMC10307832:

Compound: COc1cccc2cc(-c3nc([C@H]4CC[C@H](C(=O)O)CC4)n4ncnc(N)c34)[nH]c12 [OSI-027] + Cc1nc(NC(=O)N2CCC[C@H]2C(N)=O)sc1-c1ccnc(C(C)(C)C(F)(F)F)c1 [Alpelisib] (partner 2 µM)
Assay: relative viability (nuclei count vs DMSO), 5 days (fraction); higher = more cells survive
Conditions: first compound 0.01 µM
Outline: (§1)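 A single step with final 0.05% Triton X-100, 1% formaldehyde and 1 ug/ml Hoechst fixed the cells and stained nuclei 5 days after treatment. Lung cancer cell lines in 1536-well plates had been treated by pin tool the day after seeding with one drug alone or a fixed anchor-drug dose plus five library-drug doses (not always all listed) in √10 steps, and nuclei were counted on 4× images. Relative viability is the ratio of nuclei in treated wells to nuclei in vehicle wells, taken as the median of duplicate plates.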

Going from CAL-12T to COR-L 105, the relative viability falls from 1.28 to 1.05.

Going from LCLC-97TM1 to NCI-H520, the relative viability rises from 0.208 to 1.11.

Going from NCI-H2228 to NCI-H23, the relative viability falls from 0.934 to 0.594.

First: HCC-827
Second: NCI-H2347
The relative viability of the first is lower: 0.871 for the first, 1.11 for the second.

Going from LXF-289 to NCI-H1666, the relative viability falls from 1.05 to 0.869.

Compared with RERF-LC-KJ, NCI-H650 is higher in relative viability: 0.698 for the first, 1.05 for the second.

First: NCI-H322M
Second: NCI-H596
The relative viability of the first is lower: 0.0629 for the first, 0.432 for the second.

Same assay, conditions: first compound 0.03162 µM

Compared with A-427, NCI-H2009 is higher in relative viability: 1.08 for the first, 1.14 for the second.

First: EKVX
Second: NCI-H2087
The relative viability of the first is lower: 0.849 for the first, 1.21 for the second.

First: NCI-H1734
Second: LCLC-103H
The relative viability of the first is lower: 0.694 for the first, 0.922 for the second.

First: LU99A
Second: NCI-H460
The relative viability of the first is higher: 0.455 for the first, 0.404 for the second.

Going from SK-LU-1 to COR-L23, the relative viability falls from 0.978 to 0.784.

Compared with HCC-15, NCI-H1944 is lower in relative viability: 0.826 for the first, 0.796 for the second.

Going from EMC-BAC-2 to NCI-H1395, the relative viability rises from 0.727 to 1.14.

Going from LC-2-ad to NCI-H2085, the relative viability rises from 0.876 to 0.925.

First: NCI-H647
Second: HARA
The relative viability of the first is higher: 1.26 for the first, 0.655 for the second.

Going from NCI-H3122 to NCI-H358, the relative viability rises from 0.762 to 0.774.

First: CAL-12T
Second: COR-L 105
The relative viability of the first is higher: 0.907 for the first, 0.85 for the second.

First: LCLC-97TM1
Second: NCI-H520
The relative viability of the first is lower: 0.207 for the first, 0.833 for the second.

First: NCI-H2228
Second: NCI-H23
The relative viability of the first is higher: 0.808 for the first, 0.54 for the second.

Compared with HCC-827, NCI-H2347 is lower in relative viability: 1.03 for the first, 0.899 for the second.

First: LXF-289
Second: NCI-H1666
The relative viability of the first is higher: 1.05 for the first, 1.02 for the second.

Going from RERF-LC-KJ to NCI-H650, the relative viability rises from 0.793 to 1.1.

First: NCI-H322M
Second: NCI-H596
The relative viability of the first is higher: 0.772 for the first, 0.534 for the second.

Same assay, conditions: first compound 0.1 µM

Going from A-427 to NCI-H2009, the relative viability rises from 0.961 to 1.07.

Compared with EKVX, NCI-H2087 is higher in relative viability: 0.73 for the first, 0.947 for the second.

Going from NCI-H1734 to LCLC-103H, the relative viability rises from 0.63 to 0.991.

First: LU99A
Second: NCI-H460
The relative viability of the first is lower: 0.312 for the first, 0.314 for the second.

First: SK-LU-1
Second: COR-L23
The relative viability of the first is lower: 0.64 for the first, 0.696 for the second.

First: HCC-15
Second: NCI-H1944
The relative viability of the first is higher: 0.806 for the first, 0.764 for the second.

Compared with EMC-BAC-2, NCI-H1395 is higher in relative viability: 0.647 for the first, 0.974 for the second.

First: LC-2-ad
Second: NCI-H2085
The relative viability of the first is lower: 0.723 for the first, 0.835 for the second.

Compared with NCI-H647, HARA is lower in relative viability: 0.914 for the first, 0.785 for the second.

Compared with NCI-H3122, NCI-H358 is higher in relative viability: 0.657 for the first, 0.757 for the second.

Compared with CAL-12T, COR-L 105 is lower in relative viability: 1.09 for the first, 0.963 for the second.

Compared with LCLC-97TM1, NCI-H520 is higher in relative viability: 0.203 for the first, 0.701 for the second.

Going from NCI-H2228 to NCI-H23, the relative viability falls from 0.674 to 0.632.

Compared with HCC-827, NCI-H2347 is higher in relative viability: 0.921 for the first, 0.974 for the second.

Going from LXF-289 to NCI-H1666, the relative viability falls from 0.991 to 0.658.

First: RERF-LC-KJ
Second: NCI-H650
The relative viability of the first is lower: 0.641 for the first, 0.749 for the second.

Going from NCI-H322M to NCI-H596, the relative viability falls from 0.775 to 0.503.

Same assay, conditions: first compound 0.3162 µM

Going from A-427 to NCI-H2009, the relative viability rises from 0.82 to 0.999.

EKVX and NCI-H2087 are the same in relative viability: 0.625 for the first, 0.625 for the second.

First: NCI-H1734
Second: LCLC-103H
The relative viability of the first is lower: 0.517 for the first, 0.877 for the second.

First: LU99A
Second: NCI-H460
The relative viability of the first is higher: 0.193 for the first, 0.168 for the second.

Compared with SK-LU-1, COR-L23 is higher in relative viability: 0.394 for the first, 0.486 for the second.

First: HCC-15
Second: NCI-H1944
The relative viability of the first is higher: 0.674 for the first, 0.607 for the second.

Going from EMC-BAC-2 to NCI-H1395, the relative viability rises from 0.558 to 0.93.

Going from LC-2-ad to NCI-H2085, the relative viability falls from 0.74 to 0.727.

Going from NCI-H647 to HARA, the relative viability falls from 0.699 to 0.495.

Going from NCI-H3122 to NCI-H358, the relative viability rises from 0.405 to 0.478.

First: CAL-12T
Second: COR-L 105
The relative viability of the first is higher: 0.954 for the first, 0.658 for the second.

First: LCLC-97TM1
Second: NCI-H520
The relative viability of the first is lower: 0.145 for the first, 0.41 for the second.

Compared with NCI-H23, HCC-827 is higher in relative viability: 0.481 for the first, 0.736 for the second.

Compared with NCI-H2347, LXF-289 is higher in relative viability: 0.717 for the first, 0.909 for the second.

Going from NCI-H1666 to RERF-LC-KJ, the relative viability rises from 0.43 to 0.507.

Going from NCI-H650 to NCI-H322M, the relative viability falls from 0.679 to 0.539.

NCI-H596 gave a relative viability of 0.503.

Same assay, conditions: first compound 1 µM

Going from A-427 to NCI-H2009, the relative viability rises from 0.429 to 0.568.

Compared with EKVX, NCI-H2087 is higher in relative viability: 0.351 for the first, 0.398 for the second.

Compared with NCI-H1734, LCLC-103H is higher in relative viability: 0.259 for the first, 0.767 for the second.

First: LU99A
Second: NCI-H460
The relative viability of the first is higher: 0.204 for the first, 0.119 for the second.

First: SK-LU-1
Second: COR-L23
The relative viability of the first is higher: 0.304 for the first, 0.273 for the second.

Compared with HCC-15, NCI-H1944 is higher in relative viability: 0.288 for the first, 0.301 for the second.

Going from EMC-BAC-2 to NCI-H1395, the relative viability rises from 0.309 to 0.757.

First: LC-2-ad
Second: NCI-H2085
The relative viability of the first is lower: 0.304 for the first, 0.592 for the second.

Compared with NCI-H647, HARA is lower in relative viability: 0.376 for the first, 0.291 for the second.

Compared with NCI-H3122, NCI-H358 is higher in relative viability: 0.284 for the first, 0.297 for the second.

Going from CAL-12T to COR-L 105, the relative viability rises from 0.391 to 0.524.

Compared with LCLC-97TM1, NCI-H520 is higher in relative viability: 0.123 for the first, 0.205 for the second.

Compared with NCI-H2228, NCI-H23 is lower in relative viability: 0.546 for the first, 0.295 for the second.

Going from HCC-827 to NCI-H2347, the relative viability rises from 0.281 to 0.416.

Going from LXF-289 to NCI-H1666, the relative viability falls from 0.496 to 0.488.

First: RERF-LC-KJ
Second: NCI-H650
The relative viability of the first is lower: 0.361 for the first, 0.389 for the second.

First: NCI-H322M
Second: NCI-H596
The relative viability of the first is higher: 0.521 for the first, 0.354 for the second.

Compound: Cc1nc(NC(=O)N2CCC[C@H]2C(N)=O)sc1-c1ccnc(C(C)(C)C(F)(F)F)c1 [Alpelisib] + O=C(CCCCCCC(=O)Nc1ccccc1)NO [Vorinostat] (partner 1 µM)
Assay: as above
Conditions: first compound 0.04 µM
Outline: as §1

Going from A-427 to NCI-H2009, the relative viability falls from 0.854 to 0.675.

Compared with EKVX, NCI-H2087 is higher in relative viability: 0.584 for the first, 0.808 for the second.

Going from NCI-H1734 to LCLC-103H, the relative viability rises from 0.726 to 0.74.

Going from LU99A to NCI-H460, the relative viability rises from 0.462 to 0.717.

Compared with SK-LU-1, COR-L23 is lower in relative viability: 0.817 for the first, 0.438 for the second.
